Series [1] concerns murine leukemia P-388 cells (resistant to adriamycin). Put plainly: Growth inhibition by MTT assay, P-388 resistant to adriamycin. Type of series: cell-based. Conditions: Mus musculus, read-out: IC50 value (50% growth inhibitory concentration), P-388 resistant to adriamycin. Here is the method:
(§1) Antitumor activities of 14-chlorodaunomycin against various experimental tumors, including murine leukemia P-388 cells, murine leukemia P-388 cells (resistant to adriamycin), murine melanoma B16 cells, human lung cancer PC14 cells and murine leukemia L-1210 cells, were tested and evaluated in vitro by the following procedure:
(§2) The tumor cells were cultivated in RPMI 1640 medium supplemented with 10% fetal calf serum, 10μM 2-hydroxyethyldisulfide and kanamycin at 50 μg/ml (the growth medium), under air containing 5% CO2 at 37° C.
(§3) The tumor cells were incubated at initial densities of 1.5×10^4 cells/ml with murine melanoma B16; 2×10^4 cells/ml with murine leukemia P388, P388/ADR and L-1210; and 2.5×10^4 cells/ml with human lung cancer PC14 cells in the growth medium further containing graded concentrations of each test compound, for 72 hours. The IC50 value, namely the 50% growth inhibitory concentration of the tested compound was evaluated by MTT assay method (see Mosmann, T; "J. Immunol. Methods", 65, 55-63 (1983).
A general note: Tetrazolium dyes change colour on reduction, which living cells bring about.

In series [2] the test system is murine leukemia P-388 cells. In words: Growth inhibition by MTT assay, P-388. It is filed as cell-based. Conditions: Mus musculus, read-out: IC50 value (50% growth inhibitory concentration), P-388. Here is the method:
as §1, §2, §3

Series [3] deals with human lung cancer PC14 cells. Put plainly: Growth inhibition by MTT assay, PC14. It is filed as cell-based. The following applies: read-out: IC50 value (50% growth inhibitory concentration), PC14. Here is the method: as §1, §2, §3
In series [4] the test system is murine leukemia L-1210 cells. Put plainly: Growth inhibition by MTT assay, L-1210. Conditions: Mus musculus, read-out: IC50 value (50% growth inhibitory concentration), L-1210. Type of series: cell-based. Here is the method:
as §1, §2, §3

The subject of series [5] is murine melanoma B16 cells. In words: Growth inhibition by MTT assay, B16. The following applies: Mus musculus, read-out: IC50 value (50% growth inhibitory concentration), B16. It is filed as cell-based. Here is the method:
as §1, §2, §3

Series [6] is described as follows: Storage stability in solid state. Type of series: physicochemical. Conditions: -10° C. From the text: In the above-mentioned known processes for the preparation of (2"R)-4'-O-THPADM of formula (A) in which daunomycin (DM) of formula (II) is used as the starting compound, and which are effected via the 14-bromodaunomycin of formula (V) as the intermediate product (namely the processes of the aforesaid Japanese patent application first publication "Kokai" Nos. 104,299/80 and 156,300/81), there are formed great amounts of the undesired by-products in the tetrahydropyranylation step so that the intended final compound can be obtained only in a low yield with these prior art processes. The intermediate compound, 14-bromodaunomycin is so unstable that even when it has been stored in its solid state at -10° C. for about 1 week, 14-bromodaunomycin can remain only in such an amount which is as little as about two-thirds of its initial amount before its storage, due to that the amino sugar moiety bonded to the 7-position can be cleaved to bring about the degradation of 14-bromodaunomycin.

Series [7] relates to tumor. Conditions: Japanese patent publication No. 47194/81 and U.S. Pat. No. 4,303,785; cited from earlier work.
Series [8] is described as follows: Stability in solution in an organic solvent. It is filed as physicochemical.
In series [9] the test system is various kinds of experimental tumors. Put plainly: Antitumor activity against various experimental tumors (in words). It is filed as cell-based. On the procedure:
Antitumor activities of 14-chlorodaunomycin against various experimental tumors, including murine leukemia P-388 cells, murine leukemia P-388 cells (resistant to adriamycin), murine melanoma B16 cells, human lung cancer PC14 cells and murine leukemia L-1210 cells, were tested and evaluated in vitro by the following procedure: […]

Where [10] appears, read: P388/ADR, 72 hours, MTT assay, 2×10^4 cells/ml.
Where [11] appears, read: P388, P-388, 72 hours, MTT assay, 2×10^4 cells/ml.
[12] abbreviates: PC-14, PC14, 72 hours, MTT assay, 2.5×10^4 cells/ml.
The mark [13] stands for this setting: L1210, L-1210, 72 hours, MTT assay, 2×10^4 cells/ml.
Setting [14] is: B16, 72 hours, MTT assay, 1.5×10^4 cells/ml.

Converted amounts (≈) assume the structure as drawn. Where two headings read alike, the source gives them in different places.

Regarding `COc1cccc2c1C(=O)c1c(O)c3c(c(O)c1C2=O)C[C@@](O)(C(=O)CO)C[C@@H]3O[C@H]1C[C@H](N)[C@H](O)[C@H](C)O1` [Adriamycin, adriamycin], the IC50 in [1] (setting [10]) came to 2.06 µg/mL (≈ 3.79 µM); in [2] (setting [11]), 0.033 µg/mL (≈ 0.0607 µM); in series [3] (setting [12]) it was 0.765 µg/mL (≈ 1.41 µM); in series [4] (setting [13]), 0.154 µg/mL (≈ 0.283 µM); in series [5] (setting [14]), 0.101 µg/mL (≈ 0.186 µM).

Regarding `COc1cccc2c1C(=O)c1c(O)c3c(c(O)c1C2=O)C[C@@](O)(C(=O)CBr)C[C@@H]3O[C@H]1C[C@H](N)[C@H](O)[C@H](C)O1` [14-bromodaunomycin], the “amount remaining of its initial amount after storage” value in series [6] (14-bromodaunomycin (comparator intermediate), solid state, about 1 week) is on record as “about two-thirds”.

With `COc1cccc2c1C(=O)c1c(O)c3c(c(O)c1C2=O)C[C@@](O)(C(=O)CO)C[C@@H]3O[C@H]1C[C@H](N)[C@H](O[C@@H]2CCCCO2)[C@H](C)O1` [4'-O-tetrahydropyranyladriamycin], in [7], the antitumor activity entry is “has antitumor activity”.

For the compound `COc1cccc2c1C(=O)c1c(O)c3c(c(O)c1C2=O)C[C@@](O)(C(=O)CCl)C[C@@H]3O[C@H]1C[C@H](N)[C@H](O)[C@H](C)O1` [14-chlorodaunomycin], the IC50 in [1] (P388, 72 h) came out at 0.552 µg/mL (≈ 0.982 µM); in series [2] (P388, 72 h) it was 0.0963 µg/mL (≈ 0.171 µM); in [3] (PC-14, 72 h), 0.96 µg/mL (≈ 1.71 µM); in series [4] (L1210, 72 h) it was 0.268 µg/mL (≈ 0.477 µM); in series [5] (B16, 72 h), 0.093 µg/mL (≈ 0.165 µM). In addition, the decomposition on storage entry in [6] (solid form, 1 week or so) was “no substantial decomposition”. In series [8] (organic solvent containing some water and an acidic compound, same conditions), the “decomposition rate in solution compared with 14-bromodaunomycin” value is given as “considerably smaller than that of 14-bromodaunomycin”. Also, in series [8] (solution in an organic solvent), the “stability in solution in an organic solvent” value is on record as “somewhat stable”. The antitumor activity result in [9] was “remarkable antitumor activity”.

For the compound `COc1cccc2c1C(=O)c1c(O)c3c(c(O)c1C2=O)C[C@@](O)(C(C)=O)C[C@@H]3O[C@H]1C[C@H](N)[C@H](O)[C@H](C)O1` [Daunomycin, daunomycin], the IC50 in series [1] (setting [10]) was 0.668 µg/mL (≈ 1.27 µM); in series [2] (setting [11]), 0.0163 µg/mL (≈ 0.0309 µM); in [3] (setting [12]), 0.237 µg/mL (≈ 0.449 µM); in [4] (setting [13]), 0.0655 µg/mL (≈ 0.124 µM); in series [5] (setting [14]) it was 0.0449 µg/mL (≈ 0.0851 µM).
